According to BindingDB's records for doi:10.1021/acs.jmedchem.1c01681 (Second Military Medical University, 2021):

Assay: Inhibition of SARS-CoV-2 spike glycoprotein expressed in HEK293T cells transfected with pAAV-CAG-HnCovS-RFP assessed as inhibition of membrane fusion to Huh-7 cells expressing hACE2 measured after 4 hrs by cell-cell fusion based fluorescence assay

## CC[C@H](C)[C@H](NC(=O)CNC(=O)[C@H](CO)NC(=O)[C@@H](NC(=O)[C@H](CC(=O)O)NC(C)=O)[C@@H](C)CC)C(=O)N[C@@H](CC(N)=O)C(=O)N[C@@H](C)C(=O)N[C@@H](CO)C(=O)N[C@H](C(=O)N[C@H](C(=O)N[C@@H](CC(N)=O)C(=O)N[C@H](C(=O)N[C@@H](CCC(N)=O)C(=O)N[C@@H](CCCCN)C(=O)N[C@@H](CCC(=O)O)C(=O)N[C@H](C(=O)N[C@@H](CC(=O)O)C(=O)N[C@@H](CCCNC(=N)N)C(=O)N[C@@H](CC(C)C)C(=O)N[C@@]1(C)CCCC=CCCC[C@@](C)(C(=O)N[C@@H](CC(N)=O)C(=O)N[C@@H](CC(C)C)C(=O)N[C@@H](CC(N)=O)C(=O)N[C@@H](CCC(=O)O)C(=O)N[C@@H](CO)C(=O)N[C@@H](CC(C)C)C(=O)N[C@H](C(=O)N[C@@H](CC(=O)O)C(=O)N[C@@H](CC(C)C)C(=O)N[C@@H](CCC(N)=O)C(=O)N[C@@H](CCC(=O)O)C(=O)N[C@@H](CC(C)C)C(N)=O)[C@@H](C)CC)NC(=O)[C@H](C)NC(=O)[C@H](C(C)C)NC(=O)[C@H](CCC(=O)O)NC1=O)[C@@H](C)CC)[C@@H](C)CC)C(C)C)C(C)C
  EC50: 5 µM
